The record followed here is patent US11339169B2, “P2X3 and/or P2X2/3 compounds and methods” (Asana BioSciences, LLC, priority 2016, dated 2022).

Structures are written as SMILES.

One assay concerns Male Sprague Dawley rats. The assay is described as follows: In vivo thermal hyperalgesia (Hargreaves test), CFA-injected rat. The settings on record: 60 mg/kg po, at 1 hour, p<0.01. The protocol: Male Sprague Dawley rats of young adult age group and body weight range of 180-200 g were included in the study. Animals were housed under a 12 h light/dark cycle with food and water ad libitum. The animals underwent acclimatization with the observation chambers of the Hargreaves' apparatus for two days, twice daily for 45-60 min each time prior to initiation of study. Animals were also habituated to the apparatus for 15-30 min before each testing. Thermal hyperalgesia was assessed using the rat plantar test (Ugo Basile, Italy) following a modified method of Hargreaves (1988), “A new and sensitive method for measuring thermal nociception in cutaneous hyperalgesia”, Pain 32: 77-88, the entire disclosure of which is herein incorporated by reference. […]
Following basal readout of PWL values to the thermal stimulus (PWL measurements described previously), 50 μL of complete Freund's Adjuvant (CFA—1 mg/mL suspension—Sigma, USA, Cat #F5881) was injected subcutaneously into the plantar surface of the right hind (ipsilateral) paw of animals under light isoflurane anesthesia. […]
Next day (day 1) after 20-22 h of CFA injection, PWL of animals were recorded. Mean of three readings are taken as PWL recording of ipsilateral paw of each animal for pre and post CFA basal readout. […]

Another assay addresses T1, hP2X2/3 (Homo sapiens, UniProt P56373+Q9UBL9).
T1 construct: host or cells: TRex293 (hP2X2/3-TRex293), doxycycline-induced
T1 sequence (P56373 1-397): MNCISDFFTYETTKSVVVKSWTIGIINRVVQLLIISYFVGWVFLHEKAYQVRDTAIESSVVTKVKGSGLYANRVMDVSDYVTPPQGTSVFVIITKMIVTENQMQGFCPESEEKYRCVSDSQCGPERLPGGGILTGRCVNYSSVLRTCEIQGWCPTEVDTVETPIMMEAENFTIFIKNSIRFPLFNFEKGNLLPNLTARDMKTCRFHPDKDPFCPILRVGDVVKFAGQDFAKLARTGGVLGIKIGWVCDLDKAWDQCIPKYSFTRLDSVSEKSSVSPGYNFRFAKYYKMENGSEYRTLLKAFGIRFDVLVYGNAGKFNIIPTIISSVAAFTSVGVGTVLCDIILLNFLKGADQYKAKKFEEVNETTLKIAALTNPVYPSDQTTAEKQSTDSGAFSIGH
T1 sequence (Q9UBL9 1-471): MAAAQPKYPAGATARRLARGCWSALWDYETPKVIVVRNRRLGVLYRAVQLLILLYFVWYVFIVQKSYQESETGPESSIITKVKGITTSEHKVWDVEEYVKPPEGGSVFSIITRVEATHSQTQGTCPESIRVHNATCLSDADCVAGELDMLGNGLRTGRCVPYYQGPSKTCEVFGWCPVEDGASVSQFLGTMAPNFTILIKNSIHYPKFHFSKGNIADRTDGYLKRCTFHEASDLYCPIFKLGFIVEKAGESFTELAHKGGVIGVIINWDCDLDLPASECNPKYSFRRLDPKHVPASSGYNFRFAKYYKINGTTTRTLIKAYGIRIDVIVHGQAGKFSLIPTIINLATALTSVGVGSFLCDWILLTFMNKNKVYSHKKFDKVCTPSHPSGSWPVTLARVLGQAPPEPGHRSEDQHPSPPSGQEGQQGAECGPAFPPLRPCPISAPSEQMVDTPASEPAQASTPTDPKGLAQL
The assay is described as follows: FLIPR intracellular calcium assay, hP2X2/3. The assay is classed as cell-based. The settings on record: human P2X2/3-TRex293 cells, agonist at EC75. The method, boiled down: (§1)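 HEK (hP2X3) or tetracycline-inducible TRex293 (hP2X2/3) cells loaded with Calcium 4 dye, then given 11-point half-log compound dilutions for 15 min at room temperature in HBSS/HEPES, pH 7.4, with 1.8 mM CaCl2. Cells challenged with agonist at EC75; IC50 derived from fluorescence inhibition versus no-compound wells.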

The target of a further assay is T2, hP2X3 (Homo sapiens, UniProt P56373).
T2 construct: host or cells: HEK (hP2X3-HEK)
T2 sequence (P56373 1-397): T1 sequence (P56373 1-397)
The assay is described as follows: FLIPR intracellular calcium assay, hP2X3. The assay is classed as cell-based. The settings on record: human P2X3-HEK cells, agonist at EC75. The method, boiled down:
as §1

As to `CC[C@H](C)n1ncc2nc(N3CCN(C(C)=O)CC3)nc(N[C@H](C)c3cnc4ccccc4c3)c21` [Example 19], the “reversal to pre-treatment PWL value” in the assay on Male Sprague Dawley rats was 36%. In addition, the IC50 was in the range of 100 to 1000 nM on hP2X2/3 and 1 to 100 nM on hP2X3.
